Experimental data from patent US20250346574A1, “PYRIDINYL SUBSTITUTED OXOISOINDOLINE COMPOUNDS FOR THE TREATMENT OF CANCER” (Bristol-Myers Squibb Company, priority 2021, published 2025).

Target: Helios (Homo sapiens, UniProt Q96SW2+Q9UKS7)
Experiment: Helios Human T Regulatory Cells Degradation Assay
Assay type: cell-based
Set-up: fluorescently labelled antibodies against Helios in 1× Permeabilization buffer; endogenous in cells; host or cells: cryopreserved human T regulatory cells
Settings: cryopreserved human T regulatory cells, incubated 20 hours, Helios-APC antibody staining, flow cytometry; read-out: hTreg Helios DC50
How it was run: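 Cryopreserved human Treg cells thawed in RPMI+10% FBS+20 ng/mL IL-2, rested 3 h, then incubated with compound 20 hours at 37° C, 5% CO2. Near-IR viability stain, permeabilization, flow cytometry read-out.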

Sequence of Helios (Q9UKS7 whole entry): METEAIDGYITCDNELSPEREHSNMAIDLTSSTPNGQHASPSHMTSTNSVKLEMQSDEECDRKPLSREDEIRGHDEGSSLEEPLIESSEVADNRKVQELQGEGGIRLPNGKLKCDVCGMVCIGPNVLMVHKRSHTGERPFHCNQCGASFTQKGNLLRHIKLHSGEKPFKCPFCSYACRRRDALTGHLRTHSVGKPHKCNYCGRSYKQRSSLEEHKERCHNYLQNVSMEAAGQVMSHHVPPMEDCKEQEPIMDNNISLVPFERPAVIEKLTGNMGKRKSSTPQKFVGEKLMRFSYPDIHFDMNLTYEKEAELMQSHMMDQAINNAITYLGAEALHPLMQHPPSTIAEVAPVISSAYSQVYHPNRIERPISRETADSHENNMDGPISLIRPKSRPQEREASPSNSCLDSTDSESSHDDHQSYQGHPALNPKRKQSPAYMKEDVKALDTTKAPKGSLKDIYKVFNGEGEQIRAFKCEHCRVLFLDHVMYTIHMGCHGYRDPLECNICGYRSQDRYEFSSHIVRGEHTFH
Sequence of Helios (Q96SW2 whole entry): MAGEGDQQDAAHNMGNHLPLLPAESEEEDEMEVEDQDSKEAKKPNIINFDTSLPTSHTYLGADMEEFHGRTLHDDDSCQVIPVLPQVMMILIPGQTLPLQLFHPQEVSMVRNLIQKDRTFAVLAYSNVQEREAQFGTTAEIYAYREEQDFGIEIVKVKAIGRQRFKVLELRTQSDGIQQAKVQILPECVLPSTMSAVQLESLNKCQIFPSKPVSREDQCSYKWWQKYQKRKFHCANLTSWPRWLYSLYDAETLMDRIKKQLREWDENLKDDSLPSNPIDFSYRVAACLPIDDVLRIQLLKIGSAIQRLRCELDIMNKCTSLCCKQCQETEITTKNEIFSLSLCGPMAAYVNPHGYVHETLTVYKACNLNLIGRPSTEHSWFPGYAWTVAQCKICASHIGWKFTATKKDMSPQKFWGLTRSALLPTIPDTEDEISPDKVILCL
Sequence of Helios (Q16531 whole entry partner): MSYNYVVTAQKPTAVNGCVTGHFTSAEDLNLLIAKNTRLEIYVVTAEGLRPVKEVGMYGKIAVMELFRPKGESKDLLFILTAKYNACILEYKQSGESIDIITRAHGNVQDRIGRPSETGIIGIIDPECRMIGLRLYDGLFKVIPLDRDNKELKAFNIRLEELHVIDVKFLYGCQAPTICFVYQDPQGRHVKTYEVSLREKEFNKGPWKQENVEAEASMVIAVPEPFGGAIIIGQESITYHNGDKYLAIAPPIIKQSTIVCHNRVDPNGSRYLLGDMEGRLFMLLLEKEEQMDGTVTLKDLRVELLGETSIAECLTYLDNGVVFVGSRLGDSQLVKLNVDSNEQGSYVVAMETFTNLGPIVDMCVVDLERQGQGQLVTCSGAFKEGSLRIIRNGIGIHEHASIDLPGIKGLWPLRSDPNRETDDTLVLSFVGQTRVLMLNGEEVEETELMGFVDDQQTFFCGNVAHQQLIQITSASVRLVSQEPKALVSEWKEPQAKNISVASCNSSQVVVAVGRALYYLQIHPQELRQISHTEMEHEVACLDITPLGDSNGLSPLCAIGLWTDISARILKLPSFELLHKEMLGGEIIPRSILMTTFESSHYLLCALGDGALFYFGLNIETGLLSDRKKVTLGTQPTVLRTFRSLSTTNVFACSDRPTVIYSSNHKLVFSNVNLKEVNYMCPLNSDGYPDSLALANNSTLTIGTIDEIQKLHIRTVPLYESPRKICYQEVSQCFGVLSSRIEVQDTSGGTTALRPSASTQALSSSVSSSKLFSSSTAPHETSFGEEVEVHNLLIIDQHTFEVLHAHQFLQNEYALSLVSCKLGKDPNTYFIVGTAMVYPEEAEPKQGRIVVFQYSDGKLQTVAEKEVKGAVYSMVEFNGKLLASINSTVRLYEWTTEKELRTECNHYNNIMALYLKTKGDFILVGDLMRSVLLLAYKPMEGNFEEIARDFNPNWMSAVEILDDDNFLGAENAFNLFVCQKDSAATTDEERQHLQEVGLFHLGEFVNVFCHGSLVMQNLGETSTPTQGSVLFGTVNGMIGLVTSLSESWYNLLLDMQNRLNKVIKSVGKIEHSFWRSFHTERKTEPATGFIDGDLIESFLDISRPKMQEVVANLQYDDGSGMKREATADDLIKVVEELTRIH

DC50 [nM]	Compound
3.7	Cc1cnc(-c2ccc3c(c2)CN(C2CCC(=O)NC2=O)C3=O)cc1CN1CC2(CCC2)C1 (stereo not drawn) [Example 168, 3-(5-(4-((2-azaspiro[3.3]heptan-2-yl)methyl)-5-methylpyridin-2-yl)-1-oxoisoindolin-2-yl)piperidine-2,6-dione]
4	Cc1cnc(-c2ccc3c(c2)CN(C2CCC(=O)NC2=O)C3=O)cc1CN1CCC(C2CC2)C1 (stereo not drawn) [Example 169, 3-(5-(4-((3-cyclopropylpyrrolidin-1-yl)methyl)-5-methylpyridin-2-yl)-1-oxoisoindolin-2-yl)piperidine-2,6-dione]
5.2	COc1c(CN2CCC(C(C)(C)O)CC2)ccnc1-c1ccc2c(c1)CN(C1CCC(=O)NC1=O)C2=O (stereo not drawn) [Example 172, 3-(5-(4-((4-(2-hydroxypropan-2-yl)piperidin-1-yl)methyl)-3-methoxypyridin-2-yl)-1-oxoisoindolin-2-yl)piperidine-2,6-dione]
0.4	COc1c(CN2CCC(C3CC3)C2)ccnc1-c1ccc2c(c1)CN(C1CCC(=O)NC1=O)C2=O (stereo not drawn) [Example 173, 3-(5-(4-((3-cyclopropylpyrrolidin-1-yl)methyl)-3-methoxypyridin-2-yl)-1-oxoisoindolin-2-yl)piperidine-2,6-dione]
1.5	COc1cc(CN2CC3(CCC3)C2)cc(-c2ccc3c(c2)CN(C2CCC(=O)NC2=O)C3=O)n1 (stereo not drawn) [Example 174, 3-(5-(4-((2-azaspiro[3.3]heptan-2-yl)methyl)-6-methoxypyridin-2-yl)-1-oxoisoindolin-2-yl)piperidine-2,6-dione]
0.2	COc1cc(CN2CCC(C3CC3)C2)cc(-c2ccc3c(c2)CN(C2CCC(=O)NC2=O)C3=O)n1 (stereo not drawn) [Example 175, 3-(5-(4-((3-cyclopropylpyrrolidin-1-yl)methyl)-6-methoxypyridin-2-yl)-1-oxoisoindolin-2-yl)piperidine-2,6-dione]
≥ 10000	O=C1CCC(N2Cc3cc(-c4cc(CN5CC6(CCC6)C5)c(C(F)(F)F)cn4)ccc3C2=O)C(=O)N1 (stereo not drawn) [Example 180, 3-(5-(4-((2-azaspiro[3.3]heptan-2-yl)methyl)-5-(trifluoromethyl)pyridin-2-yl)-1-oxoisoindolin-2-yl)piperidine-2,6-dione]
≥ 10000	COCC1CN(Cc2cc(-c3ccc4c(c3)CN(C3CCC(=O)NC3=O)C4=O)ncc2C(F)(F)F)C1 (stereo not drawn) [Example 181, 3-(5-(4-((3-(methoxymethyl)azetidin-1-yl)methyl)-5-(trifluoromethyl)pyridin-2-yl)-1-oxoisoindolin-2-yl)piperidine-2,6-dione]
≥ 10000	O=C1CCC(N2Cc3cc(-c4nccc(CN5CCC(OC(F)(F)F)C5)c4F)ccc3C2=O)C(=O)N1 (stereo not drawn) [Example 183, 3-(5-(3-fluoro-4-((3-(trifluoromethoxy)pyrrolidin-1-yl)methyl)pyridin-2-yl)-1-oxoisoindolin-2-yl)piperidine-2,6-dione]
3160	O=C1CCC(N2Cc3cc(-c4nccc(CN5CC[C@H](F)C5)c4F)ccc3C2=O)C(=O)N1 (stereo partly drawn) [Example 184, 3-(5-(3-fluoro-4-(((S)-3-fluoropyrrolidin-1-yl)methyl)pyridin-2-yl)-1-oxoisoindolin-2-yl)piperidine-2,6-dione]
≥ 10000	O=C1CCC(N2Cc3cc(-c4nccc(CN5CCC(O)(C(F)(F)F)C5)c4F)ccc3C2=O)C(=O)N1 (stereo not drawn) [Example 185, 3-(5-(3-fluoro-4-((3-hydroxy-3-(trifluoromethyl)pyrrolidin-1-yl)methyl)pyridin-2-yl)-1-oxoisoindolin-2-yl)piperidine-2,6-dione]
≥ 10000	O=C1CCC(N2Cc3cc(-c4nccc(CN5Cc6cccc(F)c6C5)c4F)ccc3C2=O)C(=O)N1 (stereo not drawn) [Example 186, 3-(5-(3-fluoro-4-((4-fluoroisoindolin-2-yl)methyl)pyridin-2-yl)-1-oxoisoindolin-2-yl)piperidine-2,6-dione]
≥ 10000	O=C1CCC(N2Cc3cc(-c4nccc(CN5Cc6ccc(Cl)cc6C5)c4F)ccc3C2=O)C(=O)N1 (stereo not drawn) [Example 187, 3-(5-(4-((5-chloroisoindolin-2-yl)methyl)-3-fluoropyridin-2-yl)-1-oxoisoindolin-2-yl)piperidine-2,6-dione]
28.7	CC(C)(C)NC(=O)C1CCCN1Cc1ccnc(-c2ccc3c(c2)CN(C2CCC(=O)NC2=O)C3=O)c1 (stereo not drawn) [Example 188, N-(tert-butyl)-1-((2-(2-(2,6-dioxopiperidin-3-yl)-1-oxoisoindolin-5-yl)pyridin-4-yl)methyl)pyrrolidine-2-carboxamide]
6.4	COCC1N(Cc2ccnc(-c3ccc4c(c3)CN(C3CCC(=O)NC3=O)C4=O)c2)CC12CCC2 (stereo not drawn) [Example 189, 3-(5-(4-((1-(methoxymethyl)-2-azaspiro[3.3]heptan-2-yl)methyl)pyridin-2-yl)-1-oxoisoindolin-2-yl)piperidine-2,6-dione]
49.7	O=C1CCC(N2Cc3cc(-c4cc(CN5CCC[C@H]5C(=O)NC5CCCCC5)ccn4)ccc3C2=O)C(=O)N1 (stereo partly drawn) [Example 190, (2S)—N-cyclohexyl-1-((2-(2-(2,6-dioxopiperidin-3-yl)-1-oxoisoindolin-5-yl)pyridin-4-yl)methyl)pyrrolidine-2-carboxamide]
53.6	O=C1CCC(N2Cc3cc(-c4cc(CN5CC[C@@H]5COc5ccc(Cl)nc5)ccn4)ccc3C2=O)C(=O)N1 (stereo partly drawn) [Example 191, 3-(5-(4-(((R)-2-(((6-chloropyridin-3-yl)oxy)methyl)azetidin-1-yl)methyl)pyridin-2-yl)-1-oxoisoindolin-2-yl)piperidine-2,6-dione]
7.7	O=C1CCC(N2Cc3cc(-c4cc(CN5CCC5COc5ccc(F)cc5)ccn4)ccc3C2=O)C(=O)N1 (stereo not drawn) [Example 192, 3-(5-(4-((2-((4-fluorophenoxy)methyl)azetidin-1-yl)methyl)pyridin-2-yl)-1-oxoisoindolin-2-yl) piperidine-2,6-dione]
23.5	CC(C)(C)OC(=O)NC[C@@H]1CCCN1Cc1ccnc(-c2ccc3c(c2)CN(C2CCC(=O)NC2=O)C3=O)c1 (stereo partly drawn) [Example 195, tert-butyl (((2S)-1-((2-(2-(2,6-dioxopiperidin-3-yl)-1-oxoisoindolin-5-yl)pyridin-4-yl)methyl)pyrrolidin-2-yl)methyl)carbamate]
2.6	CC(C)OCC1CCN1Cc1ccnc(-c2ccc3c(c2)CN(C2CCC(=O)NC2=O)C3=O)c1 (stereo not drawn) [Example 196, 3-(5-(4-((2-(isopropoxymethyl)azetidin-1-yl)methyl)pyridin-2-yl)-1-oxoisoindolin-2-yl)piperidine-2,6-dione]
51.9	CC1(F)CCN(Cc2ccnc(-c3ccc4c(c3)CN(C3CCC(=O)NC3=O)C4=O)c2F)CC1 (stereo not drawn) [Example 198, 3-(5-(3-fluoro-4-((4-fluoro-4-methylpiperidin-1-yl)methyl)pyridin-2-yl)-1-oxoisoindolin-2-yl)piperidine-2,6-dione]
≥ 10000	CC(=O)N1CCCCN1Cc1ccnc(-c2ccc3c(c2)CN(C2CCC(=O)NC2=O)C3=O)c1F (stereo not drawn) [Example 199, 3-(5-(4-((2-acetyltetrahydropyridazin-1(2H)-yl)methyl)-3-fluoropyridin-2-yl)-1-oxoisoindolin-2-yl)piperidine-2,6-dione]
≥ 10000	O=C1CCC(N2Cc3cc(-c4nccc(CN5CCCC(F)C5)c4F)ccc3C2=O)C(=O)N1 (stereo not drawn) [Example 205, 3-(5-(3-fluoro-4-((3-fluoropiperidin-1-yl)methyl)pyridin-2-yl)-1-oxoisoindolin-2-yl)piperidine-2,6-dione]
11.1	CC1(C)C2CN(Cc3ccnc(-c4ccc5c(c4)CN(C4CCC(=O)NC4=O)C5=O)c3F)CC21 (stereo not drawn) [Example 206, 3-(5-(4-((6,6-dimethyl-3-azabicyclo[3.1.0]hexan-3-yl)methyl)-3-fluoropyridin-2-yl)-1-oxoisoindolin-2-yl)piperidine-2,6-dione]
≥ 10000	CC(C)(C)OC(=O)N1CCC2(CN(Cc3ccnc(-c4ccc5c(c4)CN(C4CCC(=O)NC4=O)C5=O)c3F)C2)C1 (stereo not drawn) [Example 207, tert-butyl 2-((2-(2-(2,6-dioxopiperidin-3-yl)-1-oxoisoindolin-5-yl)-3-fluoropyridin-4-yl)methyl)-2,6-diazaspiro[3.4]octane-6-carboxylate]
≥ 10000	CC(C)(C)OC(=O)N1CCCC2(CN(Cc3ccnc(-c4ccc5c(c4)CN(C4CCC(=O)NC4=O)C5=O)c3F)C2)C1 (stereo not drawn) [Example 208, tert-butyl 2-((2-(2-(2,6-dioxopiperidin-3-yl)-1-oxoisoindolin-5-yl)-3-fluoropyridin-4-yl)methyl)-2,6-diazaspiro[3.5]nonane-6-carboxylate]
≥ 10000	O=C1CCC(N2Cc3cc(-c4nccc(CN5CCC(O)(C(F)(F)F)CC5)c4F)ccc3C2=O)C(=O)N1 (stereo not drawn) [Example 209, 3-(5-(3-fluoro-4-((4-hydroxy-4-(trifluoromethyl)piperidin-1-yl)methyl)pyridin-2-yl)-1-oxoisoindolin-2-yl)piperidine-2,6-dione]
≥ 10000	CC(C)(C)OC(=O)N1CCCC12CCN(Cc1ccnc(-c3ccc4c(c3)CN(C3CCC(=O)NC3=O)C4=O)c1F)C2 (stereo not drawn) [Example 213, tert-butyl 7-((2-(2-(2,6-dioxopiperidin-3-yl)-1-oxoisoindolin-5-yl)-3-fluoropyridin-4-yl)methyl)-1,7-diazaspiro[4.4]nonane-1-carboxylate]
≥ 10000	CC(C)(C)OC(=O)N1CCC12CCCN(Cc1ccnc(-c3ccc4c(c3)CN(C3CCC(=O)NC3=O)C4=O)c1F)C2 (stereo not drawn) [Example 216, tert-butyl 6-((2-(2-(2,6-dioxopiperidin-3-yl)-1-oxoisoindolin-5-yl)-3-fluoropyridin-4-yl)methyl)-1,6-diazaspiro[3.5]nonane-1-carboxylate]

Compound	DC50 [nM]
CC(C)(C)OC(=O)N1CC2CCCN(Cc3ccnc(-c4ccc5c(c4)CN(C4CCC(=O)NC4=O)C5=O)c3F)C2C1 (stereo not drawn) [Example 204, tert-butyl 1-((2-(2-(2,6-dioxopiperidin-3-yl)-1-oxoisoindolin-5-yl)-3-fluoropyridin-4-yl)methyl) octahydro-6H-pyrrolo[3,4-b]pyridine-6-carboxylate]	≥ 10000
